Data from US5773423A (priority 1994, dated 1998).
Changes are numbered by the printed parent chain. Where two headings read alike, the source gives them in different places.

What was measured:
[1] = tested on: locomotor activity in mice; settings: CSC 1 mg/kg, shown earlier; cited from earlier work
[2] = target: T1, A1 and A3 adenosine receptors in mouse brain membranes (Mus musculus, UniProt Q60612)
T1 sequence (Q60612 1-326): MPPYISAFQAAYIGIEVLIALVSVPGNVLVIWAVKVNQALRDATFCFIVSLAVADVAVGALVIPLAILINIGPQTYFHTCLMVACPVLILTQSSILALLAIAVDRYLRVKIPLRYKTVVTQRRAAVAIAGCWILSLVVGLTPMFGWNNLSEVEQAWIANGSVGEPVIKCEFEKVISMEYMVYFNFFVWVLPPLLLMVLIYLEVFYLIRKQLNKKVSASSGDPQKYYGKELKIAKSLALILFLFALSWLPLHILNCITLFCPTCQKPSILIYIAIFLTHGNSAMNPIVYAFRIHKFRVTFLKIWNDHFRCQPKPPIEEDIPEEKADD

[3] = tested on: locomotor activity in mice; experiment: Locomotor activity in mice (open field, Digiscan activity monitor); format: in vivo, mouse (NIH Swiss); settings: CSC 1 mg/kg
[4] = target: T2, adenosine uptake sites in rat brain membranes (Rattus norvegicus, UniProt O54698); experiment: Competition for [3H]NBTI binding at adenosine uptake sites in rat striatal membranes; settings: for Ki: read-out: Ki (NBTI), 0.3 nM [3H]NBTI, 30 min at 23° C., pH 7.4
T2 sequence (O54698 1-457): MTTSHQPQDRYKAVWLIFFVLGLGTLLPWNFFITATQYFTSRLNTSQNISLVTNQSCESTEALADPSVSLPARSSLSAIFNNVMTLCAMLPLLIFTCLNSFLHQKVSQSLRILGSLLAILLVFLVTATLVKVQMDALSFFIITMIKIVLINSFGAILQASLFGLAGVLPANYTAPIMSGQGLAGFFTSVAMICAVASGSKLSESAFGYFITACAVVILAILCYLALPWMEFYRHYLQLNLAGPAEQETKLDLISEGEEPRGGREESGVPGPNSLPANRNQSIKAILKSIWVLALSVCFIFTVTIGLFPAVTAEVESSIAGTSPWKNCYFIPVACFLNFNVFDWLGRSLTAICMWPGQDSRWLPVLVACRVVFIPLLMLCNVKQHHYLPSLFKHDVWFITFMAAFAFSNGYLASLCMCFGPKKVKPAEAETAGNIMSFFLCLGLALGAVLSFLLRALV

[5] = target: T3, A2 receptors from rat striatal membranes (Rattus norvegicus, UniProt P30543); experiment: Radioligand binding at A2 (A2a) receptors, displacement of [3H]CGS 21680 (or [3H]NECA with 50 nM CPA) from rat striatal membranes
T3 construct: Rat cerebral cortical and striatal membranes were prepared; from tissue; host or cells: rat striatal membranes
T3 sequence (P30543 whole entry): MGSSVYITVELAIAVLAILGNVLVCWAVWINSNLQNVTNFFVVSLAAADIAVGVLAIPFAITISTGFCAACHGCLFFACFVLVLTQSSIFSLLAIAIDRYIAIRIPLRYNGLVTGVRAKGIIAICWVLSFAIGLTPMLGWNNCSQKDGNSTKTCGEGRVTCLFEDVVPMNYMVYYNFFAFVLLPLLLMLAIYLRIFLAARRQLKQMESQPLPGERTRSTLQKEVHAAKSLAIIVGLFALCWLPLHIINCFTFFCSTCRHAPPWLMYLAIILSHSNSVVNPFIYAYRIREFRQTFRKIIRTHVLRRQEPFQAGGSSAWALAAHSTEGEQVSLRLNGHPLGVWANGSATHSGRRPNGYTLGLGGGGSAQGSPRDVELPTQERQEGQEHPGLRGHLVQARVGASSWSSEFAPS

[6] = target: T4, A1 receptors from rat brain membranes (Rattus norvegicus, UniProt P25099); experiment: biochemical; format: binding
T4 construct: Rat cerebral cortical and striatal membranes were prepared; from tissue; host or cells: rat brain (cerebral cortical) membranes
T4 sequence (P25099 1-326): T1 sequence (Q60612 1-326) with E151V, A155D, I157R, E316D, I319L, D325E

rat A3 receptors = target: T5, rat A3 receptors (Rattus norvegicus, UniProt P28647); experiment: Irreversible inhibition of radioligand binding at rat A3 receptors after preincubation
T5 construct: expressed in transfected cells; host or cells: CHO cells, transfected (the IC50); RBL-2H3 rat mast cells (endogenous) also named
T5 sequence (P28647 1-320): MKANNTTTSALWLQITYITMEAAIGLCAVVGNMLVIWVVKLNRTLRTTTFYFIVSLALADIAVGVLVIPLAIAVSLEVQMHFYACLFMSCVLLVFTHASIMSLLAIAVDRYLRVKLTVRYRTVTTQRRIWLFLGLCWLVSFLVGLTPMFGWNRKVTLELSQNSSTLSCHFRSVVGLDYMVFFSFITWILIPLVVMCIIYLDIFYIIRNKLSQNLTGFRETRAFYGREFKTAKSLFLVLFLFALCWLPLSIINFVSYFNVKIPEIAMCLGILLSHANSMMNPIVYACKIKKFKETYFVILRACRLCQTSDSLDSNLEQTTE

[7] = target: T3, A2 receptors from rat striatal membranes; settings: Table 2, footnotes d/e: literature; read-out: Ki (A2); cited from earlier work
[8] = target: T6, A3 adenosine receptors in mouse brain membranes (Mus musculus, UniProt Q61618); experiment: [125I]AB-MECA saturation binding to A3 receptors in mouse brain membranes in the presence of 100 nM CPX
T6 construct: in mouse brain membranes; from tissue; host or cells: NIH Swiss mouse brain region membranes (cerebellum for the Kd/Bmax)
T6 sequence (Q61618 1-319): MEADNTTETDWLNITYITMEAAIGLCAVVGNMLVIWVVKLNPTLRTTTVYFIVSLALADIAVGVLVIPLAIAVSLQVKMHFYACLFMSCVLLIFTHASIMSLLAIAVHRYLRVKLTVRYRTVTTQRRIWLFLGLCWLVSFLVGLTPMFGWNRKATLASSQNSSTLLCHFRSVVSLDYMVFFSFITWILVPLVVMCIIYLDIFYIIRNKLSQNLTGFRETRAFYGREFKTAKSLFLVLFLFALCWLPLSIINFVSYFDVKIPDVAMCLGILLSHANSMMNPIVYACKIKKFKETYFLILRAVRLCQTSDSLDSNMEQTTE

[9] = tested on: A1 and A3 adenosine receptors in mouse brain membranes
[10] = target: T7, A3 adenosine receptors in rat brain membranes (Rattus norvegicus, UniProt P28647)
T7 sequence (P28647 1-320): T5 sequence (P28647 1-320)

Cn1c(=O)c2c(nc(C=Cc3cccc(Cl)c3)n2C)n(C)c1=O [Compound 134, 8-(3-chlorostyryl)caffeine]
reversal of APEC-elicited behavioral depression (in words) [1]: complete reversal | displacement of specific [125I]AB-MECA binding (in words) [2]: failed to displace specific binding of [^125 I]AB-MECA | reversal of 3-IB-MECA-mediated locomotor depression (in words) [3]: small, statistically insignificant reversal

CNC(=O)[C@H]1O[C@@H](n2cnc3c(NCc4cccc(I)c4)nc(Cl)nc32)[C@H](O)[C@@H]1O [Example 44, 2-chloro-N^6-(3-iodobenzyl)-9-[5-(methylamido)-β-D-ribofuranosyl]-adenine]
Ki [4]: 15200 nM

CNC(=O)[C@H]1O[C@@H](n2cnc3c(NCc4cccc(I)c4)nc(SC)nc32)[C@H](O)[C@@H]1O [Example 46, N^6-(3-iodobenzyl)-2-methylthio-9-[5-(methylamido)-β-D-ribofuranosyl]-adenine]
Ki ([5]; Table 2, [3H]CGS 21680, rat striatal membranes, read-out: Ki (A2)): 3210 ± 1360 nM | Ki ([6]; Table 2, [3H]PIA, rat brain membranes, read-out: Ki (A1)): 2140 ± 100 nM | Ki [4]: 49500 nM | Ratio of Ki (NBTI)/Ki ([125I]AB-MECA) ([4]; selectivity for cloned rat A3 receptors vs adenosine uptake site): 22,000

CNC(=O)[C@H]1O[C@@H](n2cnc3c(NCc4cccc(N=C=S)c4)ncnc32)[C@H](O)[C@@H]1O [N^6-(3-isothiocyanatobenzyl)adenosine-5'-N-methyluronamide]
Ki [5]: 272 nM | irreversible inhibition at rat A2a receptors (in words) [5]: not at rat A1 or A2a receptors | IC50 (rat A3 receptors): 50 nM | Kd of remaining A3 receptor sites (in words) (rat A3 receptors): No change was observed in the Kd value | irreversible inhibition of A3 binding (in words) (rat A3 receptors; CHO cells or RBL-2H3 mast cells): irreversible inhibition of radioligand binding at rat A3 receptors | Ki [6]: 145 nM | irreversible inhibition at rat A1 receptors (in words) [6]: not at rat A1 or A2a receptors

CNC(=O)[C@H]1O[C@@H](n2cnc3c(NCc4ccc(N)c([125I])c4)ncnc32)[C@H](O)[C@@H]1O [[^125 I]AB-MECA, [^125 I]4-amino-3-iodobenzyladenosine-5'-N-methyluronamide]
Ki [7]: 197 nM | A3 share of total specific binding, cerebellum and striatum ([8]; 0.4 nM [125I]AB-MECA): 18 % of total specific binding | A3 share of total specific binding, hippocampus and cortex ([8]; 0.4 nM [125I]AB-MECA): 7-9 % of total specific binding | Kd ([8]; mouse cerebellar membranes): 1.39 nM | specific binding of total binding [9]: ca. 70 % of total binding | nonspecific binding ([9]; in the presence of 40 μM R-PIA): approximately 30 % of the total binding | Bmax cerebellum ([2]; cerebellum): 120±5 fmol specifically bound/mg protein | Bmax cortex ([2]; cortex): 159±15 fmol specifically bound/mg protein | Bmax hippocampus ([2]; hippocampus): 215±17 fmol specifically bound/mg protein | Kd values (Scatchard analysis) ([2]; regions of mouse brain): 1.9 to 2.8 nM | Bmax striatum ([2]; striatum): 123±23 fmol specifically bound/mg protein | Bmax in rat brain membranes [10]: 43 fmol/mg protein
